Test results taken from patent US11780830B2, “Triazolone derivatives or salts thereof and pharmaceutical compositions comprising the same” (YUHAN CORPORATION, priority 2018, dated 2023).
Structures can show the parent of a compound that is named as a salt.

Key:
Format in all cases: biochemical
recombinant human VAP-1 = biological target: T1, recombinant human VAP-1 (Homo sapiens, UniProt Q16853); assay: Activity on recombinant human VAP-1, HRP-coupled Amplex Red hydrogen peroxide assay; details: substrate 1 mM benzylamine; compound incubated with enzyme at 37° C. for 30 minutes; pH 7.4; read-out: Inhibitory Activity (IC50, nM) human VAP-1
T1 construct: purchased R&D systems
T1 sequence (Q16853 1-763): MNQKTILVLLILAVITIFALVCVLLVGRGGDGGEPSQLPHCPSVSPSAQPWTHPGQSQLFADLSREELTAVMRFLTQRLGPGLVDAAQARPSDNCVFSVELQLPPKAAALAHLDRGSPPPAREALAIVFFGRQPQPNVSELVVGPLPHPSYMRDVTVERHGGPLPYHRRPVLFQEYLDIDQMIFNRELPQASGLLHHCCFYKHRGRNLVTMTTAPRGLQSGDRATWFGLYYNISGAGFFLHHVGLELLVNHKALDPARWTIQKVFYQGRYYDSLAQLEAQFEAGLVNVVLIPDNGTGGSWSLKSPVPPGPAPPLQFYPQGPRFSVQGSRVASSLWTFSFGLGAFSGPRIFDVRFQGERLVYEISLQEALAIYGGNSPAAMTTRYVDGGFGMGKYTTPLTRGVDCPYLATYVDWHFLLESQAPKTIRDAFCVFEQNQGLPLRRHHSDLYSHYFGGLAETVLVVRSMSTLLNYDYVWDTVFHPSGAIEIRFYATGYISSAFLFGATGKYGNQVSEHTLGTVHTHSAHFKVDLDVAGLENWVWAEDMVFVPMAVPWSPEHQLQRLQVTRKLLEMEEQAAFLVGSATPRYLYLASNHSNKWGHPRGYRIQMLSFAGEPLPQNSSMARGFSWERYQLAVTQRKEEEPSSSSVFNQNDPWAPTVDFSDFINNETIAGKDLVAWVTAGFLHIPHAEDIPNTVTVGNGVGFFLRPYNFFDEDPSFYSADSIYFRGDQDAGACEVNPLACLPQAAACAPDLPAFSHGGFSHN
Method in brief: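 Dose-response IC50 determined from reduction in resorufin signal rate (544/590 nm, 1-2 h), with 30 min compound preincubation at 37 °C and 1 mM benzylamine as substrate.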

[1] = biological target: T2, recombinant human MAO-A (monoamine oxidase-A) (Homo sapiens, UniProt P21397); assay: Activity on recombinant human MAO-A, method similar to the VAP-1 assay; details: substrate 0.5 mM tyramine; read-out: Inhibitory Activity (IC50, nM) MAO-A
T2 construct: purchased Sigma-Aldrich
T2 sequence (P21397 1-527): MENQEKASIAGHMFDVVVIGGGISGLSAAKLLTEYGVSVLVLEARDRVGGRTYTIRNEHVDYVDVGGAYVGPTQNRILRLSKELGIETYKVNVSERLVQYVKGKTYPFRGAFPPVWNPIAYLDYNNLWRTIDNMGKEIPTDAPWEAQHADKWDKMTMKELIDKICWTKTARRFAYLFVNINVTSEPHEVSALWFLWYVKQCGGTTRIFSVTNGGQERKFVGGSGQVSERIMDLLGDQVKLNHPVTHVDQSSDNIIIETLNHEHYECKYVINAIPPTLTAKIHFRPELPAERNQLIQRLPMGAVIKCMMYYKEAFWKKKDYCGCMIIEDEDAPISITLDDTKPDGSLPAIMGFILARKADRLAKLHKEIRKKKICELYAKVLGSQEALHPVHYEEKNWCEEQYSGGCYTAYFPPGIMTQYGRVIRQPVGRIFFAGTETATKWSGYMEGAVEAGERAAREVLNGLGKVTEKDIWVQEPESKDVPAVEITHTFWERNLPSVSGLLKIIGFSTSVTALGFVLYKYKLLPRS
Method in brief: (§1)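 Amplex Red/HRP coupled read-out of H2O2 with 0.5 mM tyramine for MAO-A or 1 mM benzylamine for MAO-B, following a 30-min compound–enzyme preincubation at 37° C. IC50 from percent inhibition of signal rate relative to uninhibited control.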

[2] = biological target: T3, recombinant human MAO-B (monoamine oxidase-B) (Homo sapiens, UniProt P27338); assay: Activity on recombinant human MAO-B, method similar to the VAP-1 assay; details: substrate 1 mM benzylamine; read-out: Inhibitory Activity (IC50, nM) MAO-B
T3 construct: purchased Sigma-Aldrich
T3 sequence (P27338 1-520): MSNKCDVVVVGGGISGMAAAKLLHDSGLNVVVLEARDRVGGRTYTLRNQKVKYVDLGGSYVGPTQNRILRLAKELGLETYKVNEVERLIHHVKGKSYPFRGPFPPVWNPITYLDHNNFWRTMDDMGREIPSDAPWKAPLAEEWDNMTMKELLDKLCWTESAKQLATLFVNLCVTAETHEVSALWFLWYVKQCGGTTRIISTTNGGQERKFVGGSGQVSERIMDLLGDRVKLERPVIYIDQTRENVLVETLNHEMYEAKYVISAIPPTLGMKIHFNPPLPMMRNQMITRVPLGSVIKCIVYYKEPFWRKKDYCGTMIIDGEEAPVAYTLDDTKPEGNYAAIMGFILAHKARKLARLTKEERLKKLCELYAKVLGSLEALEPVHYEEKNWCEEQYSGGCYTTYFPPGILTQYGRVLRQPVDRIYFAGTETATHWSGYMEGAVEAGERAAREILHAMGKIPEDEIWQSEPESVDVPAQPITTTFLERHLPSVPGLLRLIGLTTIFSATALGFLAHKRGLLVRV
Method in brief: as §1

[3] = biological target: T4, recombinant human DAO (diamine oxidase) (Homo sapiens, UniProt P19801); assay: Activity on recombinant human DAO, method similar to the VAP-1 assay; details: substrate 1 mM putrescine; read-out: Inhibitory Activity (IC50, nM) DAO
T4 construct: purchased R&D systems
T4 sequence (P19801 20-751): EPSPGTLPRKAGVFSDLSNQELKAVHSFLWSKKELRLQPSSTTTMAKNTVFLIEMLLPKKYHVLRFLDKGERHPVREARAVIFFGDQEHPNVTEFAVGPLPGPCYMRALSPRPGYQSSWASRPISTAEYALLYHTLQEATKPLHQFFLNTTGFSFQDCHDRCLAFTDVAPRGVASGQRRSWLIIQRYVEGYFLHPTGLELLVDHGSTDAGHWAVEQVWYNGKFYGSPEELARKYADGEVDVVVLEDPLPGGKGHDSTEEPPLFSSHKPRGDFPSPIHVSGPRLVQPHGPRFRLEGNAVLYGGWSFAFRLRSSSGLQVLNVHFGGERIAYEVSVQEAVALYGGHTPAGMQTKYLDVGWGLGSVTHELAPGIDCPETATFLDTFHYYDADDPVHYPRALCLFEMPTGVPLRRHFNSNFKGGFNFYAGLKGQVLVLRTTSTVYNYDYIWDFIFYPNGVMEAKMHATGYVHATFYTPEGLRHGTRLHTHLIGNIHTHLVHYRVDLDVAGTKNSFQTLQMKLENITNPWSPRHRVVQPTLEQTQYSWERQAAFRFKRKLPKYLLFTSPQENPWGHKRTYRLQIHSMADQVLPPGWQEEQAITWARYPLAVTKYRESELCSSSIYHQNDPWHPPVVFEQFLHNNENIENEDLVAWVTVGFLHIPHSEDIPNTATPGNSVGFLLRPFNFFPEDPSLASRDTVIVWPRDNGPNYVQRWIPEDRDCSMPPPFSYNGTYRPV
Method in brief: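 Inhibition of recombinant human diamine oxidase (DAO, R&D systems) was assessed by the same approach as the VAP-1 assay, using 1 mM putrescine as substrate. Hydrogen peroxide formed was detected through an HRP-coupled Amplex Red reaction yielding fluorescent resorufin, read at 544 nm excitation and 590 nm emission. IC50 values came from four-parameter logistic fitting in GraphPad Prism.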

IC50 (recombinant human VAP-1) [nM]	IC50 [1] [nM]	IC50 [2] [nM]	IC50 [3] [nM]	Compound
0.5	> 100000	200	120	NC/C(=C\F)Cn1ncn(Cc2ccc(-c3cccc(S(=O)(=O)N4CCCC4)c3)s2)c1=O [Example 28, 2-[(2E)-2-(aminomethyl)-3-fluoroprop-2-en-1-yl]-4-(5-[3-(pyrrolidin-1-ylsulfonyl)phenyl]thiophen-2-ylmethyl)-2,4-dihydro-3H-1,2,4-triazol-3-one hydrochloride]
1.4	> 100000	> 10000	150	NC/C(=C\F)Cn1ncn(Cc2ccc(-c3ccc(S(=O)(=O)N4CCOCC4)cc3)s2)c1=O [Example 29, 2-[(2E)-2-(aminomethyl)-3-fluoroprop-2-en-1-yl]-4-(5-[4-(morpholin-4-ylsulfonyl)phenyl]thiophen-2-ylmethyl)-2,4-dihydro-3H-1,2,4-triazol-3-one hydrochloride]
0.67	> 100000	73	120	NC/C(=C\F)Cn1ncn(Cc2ccc(-c3ccc(-c4nnc[nH]4)cc3)s2)c1=O [Example 31, 2-[(2E)-2-(aminomethyl)-3-fluoroprop-2-en-1-yl]-4-(5-[4-(4H-1,2,4-triazol-3-yl)phenyl]thiophen-2-ylmethyl)-2,4-dihydro-3H-1,2,4-triazol-3-one]
0.8	> 100000	600	790	NC/C(=C\F)Cn1ncn(Cc2ccc(-c3cccc(-c4nnc[nH]4)c3)s2)c1=O [Example 33, 2-[(2E)-2-(aminomethyl)-3-fluoroprop-2-en-1-yl]-4-(5-[3-(4H-1,2,4-triazol-3-yl)phenyl]thiophen-2-ylmethyl)-2,4-dihydro-3H-1,2,4-triazol-3-one]
2	> 100000	116	660	NC/C(=C\F)Cn1ncn(Cc2ccc(-c3cccc(-c4ncon4)c3)s2)c1=O [Example 34, 2-[(2E)-2-(aminomethyl)-3-fluoroprop-2-en-1-yl]-4-(5-[3-(1,2,4-oxadiazol-3-yl)phenyl]thiophen-2-ylmethyl)-2,4-dihydro-3H-1,2,4-triazol-3-one]
0.89	39600	247	67	NC/C(=C\F)Cn1ncn(Cc2ccc(-c3ccc(-c4noc(C5CC5)n4)cc3)s2)c1=O [Example 35, 2-[(2E)-2-(aminomethyl)-3-fluoroprop-2-en-1-yl]-4-(5-[4-(5-cyclopropyl-1,2,4-oxadiazol-3-yl)phenyl]thiophen-2-ylmethyl)-2,4-dihydro-3H-1,2,4-triazol-3-one hydrochloride]
0.7	> 100000	101	344	NC/C(=C\F)Cn1ncn(Cc2ccc(-c3cccc(-c4noc(C5CC5)n4)c3)s2)c1=O [Example 36, 2-[(2E)-2-(aminomethyl)-3-fluoroprop-2-en-1-yl]-4-(5-[3-(5-cyclopropyl-1,2,4-oxadiazol-3-yl)phenyl]thiophen-2-ylmethyl)-2,4-dihydro-3H-1,2,4-triazol-3-one hydrochloride]
0.76	5590	590	120	CC(C)c1nc(-c2ccc(-c3ccc(Cn4cnn(C/C(=C/F)CN)c4=O)s3)cc2)no1 [Example 37, 2-[(2E)-2-(aminomethyl)-3-fluoroprop-2-en-1-yl]-4-[(5-4-[5-(propan-2-yl)-1,2,4-oxadiazol-3-yl]phenylthiophen-2-yl)methyl]-2,4-dihydro-3H-1,2,4-triazol-3-one hydrochloride]
2.8	7900	1030	2400	CC(C)c1nc(-c2cccc(-c3ccc(Cn4cnn(C/C(=C/F)CN)c4=O)s3)c2)no1 [Example 38, 2-[(2E)-2-(aminomethyl)-3-fluoroprop-2-en-1-yl]-4-[(5-3-[5-(propan-2-yl)-1,2,4-oxadiazol-3-yl]phenylthiophen-2-yl)methyl]-2,4-dihydro-3H-1,2,4-triazol-3-one hydrochloride]
0.6	> 100000	110	370	NC/C(=C\F)Cn1ncn(Cc2ccc(-c3ccc(-c4ccon4)cc3)s2)c1=O [Example 40, 2-[(2E)-2-(aminomethyl)-3-fluoroprop-2-en-1-yl]-4-(5-[4-(1,2-oxazol-3-yl)phenyl]thiophen-2-ylmethyl)-2,4-dihydro-3H-1,2,4-triazol-3-one hydrochloride]
0.7	> 100000	5100	570	CN(C)c1ccc(-c2ccc(Cn3cnn(C/C(=C/F)CN)c3=O)s2)cn1 [Example 42, 2-[(2E)-2-(aminomethyl)-3-fluoroprop-2-en-1-yl]-4-(5-[6-(dimethylamino)pyridin-3-yl]thiophen-2-ylmethyl)-2,4-dihydro-3H-1,2,4-triazol-3-one hydrochloride]
